For 20 molecules, GI50 and TGI results are on record in PubChem BioAssay (NCI).

Each structure is given as a SMILES string. Values joined by “and” are separate entries in the source; they are usually repeats but may differ in a detail not shown here. Identical values can stand only once.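 These data come from cells grown in 96-well plates and exposed to compound for 48 hours at five concentrations. Here, GI50 denotes the concentration required for 50% inhibition of growth. TGI marks complete inhibition of growth.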 Where a SMILES comes first, the peptide text is derived from it. [ ]: non-standard residue; d: D form. The star is where a group is joined. ξ: configuration not given here. X6 = FC(F)(F)c1cc(NC(=S)*)cc(C(F)(F)F)c1; ξF = NC(Cc1ccccc1)C(=O)O

Test systems include HS 578T breast; NCI/ADR-RES ovarian; T-47D breast; MDA-N.
Holding throughout (experiment): NCI tumour cell line growth inhibition, 48 h

`Cc1nc2ccccc2c(N)c1-c1cc(C)c2c(C)nc3ccccc3c2n1`: the GI50 is 0.891 µM with HS 578T breast, 1.34 µM in the assay with NCI/ADR-RES ovarian and 1.78 µM in the assay with T-47D breast. In addition, the TGI is 3.15 µM in the assay with NCI/ADR-RES ovarian and 4.04 µM in the assay with T-47D breast.

As for `NC(Cc1c[nH]c2c(O)cccc12)C(=O)O` (configuration not stated), in the assay on NCI/ADR-RES ovarian, the GI50 is above 100 µM and the TGI is above 100 µM. Also, in the assay with T-47D breast, the GI50 is above 100 µM and the TGI is above 100 µM.

In the case of `COc1cc(-c2nn(-c3ccc(NC(=O)c4ccc(Cl)c(C(F)(F)F)c4)cc3)cc2-c2ccncc2)ccc1Cl`, the GI50 in the assay with HS 578T breast was 1.23 µM; with NCI/ADR-RES ovarian it was 3.63 µM; with T-47D breast it was 2.98 µM. Also, the TGI in the assay with HS 578T breast is 4.03 µM; in the assay on NCI/ADR-RES ovarian it was above 100 µM; in the assay with T-47D breast it was above 100 µM.

With `O=C(Nc1ccccc1OC(F)(F)F)Nc1n[nH]c2ccccc12`, the GI50 was 19.4 µM with HS 578T breast, 44.2 µM in the assay on NCI/ADR-RES ovarian and 37.5 µM with T-47D breast. The TGI in the assay with HS 578T breast, with NCI/ADR-RES ovarian and in the assay on T-47D breast was above 100 µM throughout.

Regarding `O=C(/C=C/C12c3ccccc3C(c3ccccc31)C1C(=O)NC(=O)C12)c1ccncc1` (configuration not stated), the GI50 in the assay with HS 578T breast was 3.04 µM; in the assay on NCI/ADR-RES ovarian, 2.31 µM; in the assay with T-47D breast, 2.82 µM. For the same molecule, the TGI with HS 578T breast was determined as 19.8 µM; in the assay on NCI/ADR-RES ovarian, 6.71 µM; with T-47D breast, 12.9 µM.

`CCCCOC(=O)C1OC(O[C@H]2CCC3(C)C(CCC4(C)C3CC=C3C5CC(C)(C)CCC5(C(=O)O)CC[C@]34C)C2(C)C)C(OC2OC(CO)C(O)C(O)C2O)C(OC2OC(CO)C(O)C(O)C2O)C1O` (some centres not stated): the results for the GI50 in the assay on HS 578T breast, in the assay with NCI/ADR-RES ovarian and in the assay on T-47D breast were 38 µM, 74 µM and 48 µM, respectively. Besides, the TGI in the assay on HS 578T breast, with NCI/ADR-RES ovarian and in the assay on T-47D breast was above 100 µM each time.

In the case of `COC(=O)[C@@H](NC(=O)CNC(=O)[C@H]1CCCN1C(=O)C(Cc1ccccc1)NC(=S)Nc1cc(C(F)(F)F)cc(C(F)(F)F)c1)C(C)C` (some centres not stated) (X6-[ξF][dP]GV-OMe), the GI50 is 2.47 µM in the assay on HS 578T breast, 3.47 µM in the assay with NCI/ADR-RES ovarian and 3.87 µM in the assay on T-47D breast. For the same molecule, the TGI was 8.49 µM in the assay with HS 578T breast, 43.3 µM with NCI/ADR-RES ovarian and 28.8 µM with T-47D breast.

`Cn1cc(C2=C(c3cn(C)c4ncccc34)C(=O)NC2=O)c2ccccc21`: the GI50 with HS 578T breast was 4.17 µM; with NCI/ADR-RES ovarian it was 11.5 µM; with T-47D breast, 7.56 µM. Also, the TGI in the assay on HS 578T breast was above 19.1 µM; in the assay on NCI/ADR-RES ovarian, above 25 µM; in the assay on T-47D breast it was above 23.5 µM.

`COc1cc(Cc2cnc(/N=C3\C(=O)N(CN4CCN(c5c(F)cc6c(=O)c(C(=O)O)cn(C7CC7)c6c5OC)CC4C)c4ccc(F)cc43)nc2N)cc(OC)c1OC` (configuration not stated): the GI50 was 23.6 µM in the assay with HS 578T breast, 11.8 µM in the assay with NCI/ADR-RES ovarian and 2.85 µM with T-47D breast. Besides, the TGI in the assay on HS 578T breast was 82.5 µM; in the assay on NCI/ADR-RES ovarian, 29.4 µM; in the assay with T-47D breast, 24.3 µM.

With `O=C1/C(=C/c2cccc([N+](=O)[O-])c2)COc2ccc(O)cc21`, the GI50 with HS 578T breast was 3 µM; in the assay with NCI/ADR-RES ovarian it was 2.93 µM; in the assay with T-47D breast it was 2.24 µM. In addition, the TGI in the assay with HS 578T breast worked out at 9.4 µM; with NCI/ADR-RES ovarian, 10.8 µM; in the assay with T-47D breast, 6.3 µM.

For the molecule `NC(=O)c1sc(-n2cnc3ccccc32)cc1OCc1ccccc1Br`, the GI50 is 9.11 µM in the assay with HS 578T breast, 0.869 µM in the assay on NCI/ADR-RES ovarian and 23.1 µM in the assay on T-47D breast. Besides, the TGI in the assay with HS 578T breast, in the assay on NCI/ADR-RES ovarian and in the assay on T-47D breast was above 25 µM in each case.

With `Clc1ccc2c(NCCCCNc3nc(N4CCCCC4)nc4ccccc34)ccnc2c1`, the GI50 is 1.82 µM in the assay on HS 578T breast, 2.68 µM with NCI/ADR-RES ovarian and 2.12 µM in the assay with T-47D breast. Also, the TGI in the assay on HS 578T breast is 4.6 µM; in the assay on NCI/ADR-RES ovarian it was 9.18 µM; with T-47D breast, 4.3 µM.

For `COc1cc(/C=N/NC(=O)c2ccc(C(F)(F)F)nc2Nc2ccc(Cl)cc2C)ccc1O`, the GI50 in the assay with HS 578T breast is 3.53 µM; in the assay with NCI/ADR-RES ovarian, 2.66 µM; in the assay with T-47D breast it was 1.49 µM. Moreover, the TGI in the assay on HS 578T breast is 16.5 µM; with NCI/ADR-RES ovarian, 9.97 µM; in the assay on T-47D breast it was 18 µM.

As to `O=C1CC(c2ccc3c(c2)OCO3)Nc2ccccc21` (configuration not stated), the results for the GI50 in the assay with HS 578T breast, in the assay with NCI/ADR-RES ovarian and with T-47D breast were 17.8 µM, 11.8 µM and 5.23 µM, respectively. The TGI in the assay on HS 578T breast came out at 77 µM; in the assay with NCI/ADR-RES ovarian, 39.9 µM; with T-47D breast, 73.9 µM.

Regarding `O=C1C(Cl)=C(Nc2cccc(Cl)c2)C(=O)N1Cc1ccc(Cl)cc1Cl`, the GI50 in the assay on HS 578T breast was 1.23 µM; with NCI/ADR-RES ovarian it was 0.904 µM; in the assay on T-47D breast it was 1.72 µM. Also, the figures for the TGI with HS 578T breast, in the assay with NCI/ADR-RES ovarian and in the assay on T-47D breast were 22.9 µM, 25 µM and above 41.8 µM, respectively.

As to `COC1CCC(N2C(=O)CNc3ncc(-c4ccc(C(C)(C)O)nc4)nc32)CC1` (configuration not stated), the GI50 in the assay with HS 578T breast was 0.407 µM and 0.137 µM; with NCI/ADR-RES ovarian it was 1.64 µM and 0.435 µM; in the assay with T-47D breast, 0.159 µM and 0.0258 µM. Also, the TGI in the assay on HS 578T breast was 3.68 µM and 0.624 µM; in the assay with NCI/ADR-RES ovarian, above 100 µM; in the assay with T-47D breast it was 0.786 µM and 0.306 µM.

With `NNC(=O)Nc1cccnc1`, the TGI with MDA-N, in the assay with NCI/ADR-RES ovarian and in the assay with T-47D breast was above 100 µM in each case.

With `C#Cc1ccc(-n2c(/C=C/c3ccc(C(F)(F)F)cc3)nc3ncccc3c2=O)cc1`, the GI50 in the assay with HS 578T breast was 3.46 µM; in the assay with NCI/ADR-RES ovarian, 2.5 µM; in the assay with T-47D breast, 2.02 µM. The TGI with HS 578T breast is above 100 µM; in the assay with NCI/ADR-RES ovarian, 7 µM; in the assay on T-47D breast it was 4.97 µM.

As for `Cc1cc(I)cc(CN(C)CCCCN2CCCCC2)c1O`, the GI50 is 8.9 µM with HS 578T breast, 19.5 µM with NCI/ADR-RES ovarian and 16.1 µM with T-47D breast. Besides, the TGI in the assay with HS 578T breast worked out at 23.5 µM; with NCI/ADR-RES ovarian it was 73.2 µM; in the assay on T-47D breast, 49.3 µM.

For the molecule `CCCCCN(CCCCC)CCCNc1c2c(nc3ccc(Cl)cc13)CCCC2`, in the assay on NCI/ADR-RES ovarian, the GI50 is 2.15 µM and the TGI stood at 6.11 µM. For the same molecule, in the assay on T-47D breast, the GI50 was 2.6 µM and the TGI turned out to be 6.17 µM.
